Like-named read-outs stand apart in the source and are kept apart here.
What was measured:
[1] = biological target: T1, human β-glucuronidase (HsGUSB) (Homo sapiens, UniProt P08236); experiment: Competitive activity-based protein profiling (cABPP) of GUSB in platelet lysate; type: biochemical; conditions: cABPP with ABP VB-A69 100 nM, pH 5.0, 1 h preincubation at 37°C
T1 construct: endogenous in cells; host or cells: human platelets (lysate)
T1 sequence (P08236 23-651): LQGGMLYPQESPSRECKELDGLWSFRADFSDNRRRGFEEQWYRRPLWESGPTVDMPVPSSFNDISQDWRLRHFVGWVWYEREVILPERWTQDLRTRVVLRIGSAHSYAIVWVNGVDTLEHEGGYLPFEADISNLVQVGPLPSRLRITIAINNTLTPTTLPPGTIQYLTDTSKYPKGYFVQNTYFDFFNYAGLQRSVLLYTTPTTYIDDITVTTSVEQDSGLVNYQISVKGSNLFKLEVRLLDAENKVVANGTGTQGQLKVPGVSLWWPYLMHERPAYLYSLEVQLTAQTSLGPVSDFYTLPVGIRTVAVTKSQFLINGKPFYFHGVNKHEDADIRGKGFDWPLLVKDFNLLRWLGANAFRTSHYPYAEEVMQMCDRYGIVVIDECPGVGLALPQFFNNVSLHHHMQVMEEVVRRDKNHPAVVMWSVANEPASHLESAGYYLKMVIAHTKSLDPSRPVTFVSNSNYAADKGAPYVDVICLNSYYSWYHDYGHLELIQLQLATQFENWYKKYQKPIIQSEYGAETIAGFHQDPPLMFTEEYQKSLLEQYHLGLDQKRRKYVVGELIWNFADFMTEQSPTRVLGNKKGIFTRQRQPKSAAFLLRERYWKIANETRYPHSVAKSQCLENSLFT
From the text: (§1) We next examined whether the synthetic 1-N-iminosugars could inhibit HPSE and human β-glucuronidase. To assess the potency of these inhibitors, we used a competitive activity-based protein profiling (cABPP) assay, that measures the ability of the inhibitor to reduce fluorescent labeling of an enzyme by a fluorescent pan-β-glucuronidase activity-based probe (ABP).[16],[34] Using this cABPP assay, we can simultaneously monitor the inhibition of HPSE and GUSB that are both present in platelet lysates.[6],[29] […] The IC50’s determined for HPSE were greater than that observed for GUSB, which is anticipated for monomer-like inhibitors acting on multisubsite endo-acting enzymes. […] However, the trend that inhibition was improved with the removal of the 3-geminal diol was maintained for both GUSB and HPSE.
(§2) Figure 3 Competitive ABPP of platelet lysate with synthetic iminosugars. Iminosugars 8–11 inhibit both GusB and HPSE present in human platelet lysate. Quantitated fluorescence plots used to determine IC50 values are available in Figure S7. Full length gel images and replicates are available in Figure S8, and Coomassie stained gels are available in Figure S9.
(§3) Figure S7. Inhibition of HPSE and GusB in human platelet lysates by inhibitors 8, 9, 10 and 11. A […]
(§4) normalized quantitated band intensities for HPSE against inhibitor concentration. […]
(§5) Xray diffraction data were collected at 100 K at beamlines i03, i04 and i04-1 of the Diamond Light Source UK. Reflections were autoprocessed using the XIA2 pipeline7. Complexes were solved by directly refining against their unliganded structures where solved using molecular replacement with PHASER4 (search model PDB accessions 5E98 (HPSE), 3VNY (AcGH79), 3K46 (EcGUSB)). Solved […]
(§6) refinement using COOT8 and REFMAC59 respectively. Ligand coordinates were built using jLigand10.
(§7) Diagrams were generated using PyMOL (Delano Scientific). cABPP Labelling experiments:
(§8) ABP labelling reactions were carried out in McIlvaine buffer (pH 5.0), 300 mM NaCl. Labeling reactions were initiated by the addition of ABP VB-A69 to a final concentration of 100 nM, before incubation for 30 min at 37°C with shaking. Following labeling, samples were denatured by boiling with Laemmli buffer for 5 min and resolved by SDS-PAGE. […]
(§9) For competitive ABPP (cABPP) experiments, platelet lysates were preincubated with inhibitor (or buffer only control) in McIlvaine buffer (pH 5.0), 300 mM NaCl for 1 h at 37°C with shaking. […] For quantitative measurements, fluorescently labeled the band intensities were calculated using Imagequant (Cytiva), and normalized to the corresponding band in the inhibitor free control lane. IC50 concentrations were determined by fitting data to the Hill equation: […]

[2] = biological target: T2, Acidobacterium capsulatum β-glucuronidase (AcGH79) (Acidobacterium capsulatum, UniProt C1F2K5); experiment: Inhibition of AcGH79 hydrolysis of 4-methylumbelliferyl glucuronide (MU-GlcUA); type: biochemical
T2 sequence (C1F2K5 1-475): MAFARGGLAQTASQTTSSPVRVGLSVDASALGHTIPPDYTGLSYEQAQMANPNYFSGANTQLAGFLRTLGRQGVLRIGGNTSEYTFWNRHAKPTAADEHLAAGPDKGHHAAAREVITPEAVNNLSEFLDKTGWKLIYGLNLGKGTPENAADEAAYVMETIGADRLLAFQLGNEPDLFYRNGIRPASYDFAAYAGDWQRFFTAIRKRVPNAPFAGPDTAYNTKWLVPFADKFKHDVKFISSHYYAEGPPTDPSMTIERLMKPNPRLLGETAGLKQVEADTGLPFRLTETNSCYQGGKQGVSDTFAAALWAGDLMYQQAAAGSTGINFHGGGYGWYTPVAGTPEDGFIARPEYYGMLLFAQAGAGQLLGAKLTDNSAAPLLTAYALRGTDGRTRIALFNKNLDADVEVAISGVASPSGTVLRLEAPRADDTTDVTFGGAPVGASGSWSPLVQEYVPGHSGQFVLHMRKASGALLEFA
From the text: (§10) To assess the potency of the synthesized 1-N-iminosugars, we first turned to the exo-acting β-glucuronidases AcGH79 and EcGusB, whose activity can be readily monitored with the use of the fluorogenic substrate 4-methylumbelliferyl glucuronide (MU-GlcUA). As these β-glucuronidases belong to different families–AcGH79 to the GH79 family and EcGusB to the GH2 family[46]—assessing inhibition with these enzymes also gives some insights into the applicability of these molecules. All four synthesized compounds (8–11) are able to inhibit both enzymes (see Table 1, Figures S5 and S6).
(§11) Figure S5. Inhibition kinetics of AcGH79 treated with synthetic inhibitors. The inhibition constants for AcGH79 treated with A) 11, B) 9, C) 10, and D) 8 were determined. Michaelis-Menten saturation curves were determined in the presence of various concentration of inhibitor (left panel). These curves were fit to a hyperbolic equation, resulting in a Michaelis constant (KM). The KM values were then plotted against the inhibitor concentration (right panel). A linear fit of this plot was then used to determine the inhibition constant (KI).
(§12) Initial rates were determined for AcGH79 and EcGusB hydrolysis of 4-methylumbelliferyl glucuronide in the presence of varying concentrations either commercial or HPLC purified siastatin B to determine inhibitory IC50 concentrations. Reactions contained 20 mM NaCl, 1 % BSA, 60 mM McIllvane Buffer pH 5.0 and 500 µM 4-methylumbelliferyl glucuronide and 0 – 400 µM siastatin B. Assays were initiated by the addition of enzyme to a final concentration of 2 nM. Fluorescence was monitored using a Clariostar plate reader using an excitation wavelength of 365 nm and emission wavelength of 450 nm.
(§13) Assays were performed in quadruplicate and the variation of initial rates with inhibitor concentration […]
(§14) were fit to the Hill equation: with the software program Origin 2019. A=Amax( kn+ [I]n) To determine inhibition constant (Ki) values, Michaelis-Menten parameters were determined for AcGH79 and EcGusB hydrolysis of 4-methylumbelliferyl glucuronide in reactions containing one of the inhibitors 8, 9, 10 or 11. Assays were initiated by the addition of enzyme to the assay mix containing 0-1 mM 4-methylumbelliferyl glucuronide, 20 mM NaCl, 0.1 % BSA, 60 mM McIllvane Buffer pH
(§15) 5.0. Fluorescence was monitored as above. Michaelis constants were determined for at least 3 different inhibitor concentrations for each different inhibitor. Inhibition constants were calculated according to a competitive inhibition model for both inhibitors using the equation : . All K= K(1+ [I]) […]
(§16) kinetic parameters were fit with the software program Origin 2019. […]
(§17) The Journal of Organic Chemistry 2005, 70, 5207-5214.
(§18) Nat Struct Mol Biol 2015, 22 (12), 1016-1022.
(§19) (7) Winter, G. xia2: an expert system for macromolecular crystallography data reduction. Journal of […]

[3] = biological target: T3, human heparanase (HPSE) (Homo sapiens, UniProt Q9Y251); experiment: Competitive activity-based protein profiling (cABPP) of HPSE in platelet lysate; type: biochemical; conditions: cABPP with ABP VB-A69 100 nM, pH 5.0, 1 h preincubation at 37°C
T3 construct: endogenous in cells; host or cells: human platelets (lysate)
T3 sequence (Q9Y251 36-543): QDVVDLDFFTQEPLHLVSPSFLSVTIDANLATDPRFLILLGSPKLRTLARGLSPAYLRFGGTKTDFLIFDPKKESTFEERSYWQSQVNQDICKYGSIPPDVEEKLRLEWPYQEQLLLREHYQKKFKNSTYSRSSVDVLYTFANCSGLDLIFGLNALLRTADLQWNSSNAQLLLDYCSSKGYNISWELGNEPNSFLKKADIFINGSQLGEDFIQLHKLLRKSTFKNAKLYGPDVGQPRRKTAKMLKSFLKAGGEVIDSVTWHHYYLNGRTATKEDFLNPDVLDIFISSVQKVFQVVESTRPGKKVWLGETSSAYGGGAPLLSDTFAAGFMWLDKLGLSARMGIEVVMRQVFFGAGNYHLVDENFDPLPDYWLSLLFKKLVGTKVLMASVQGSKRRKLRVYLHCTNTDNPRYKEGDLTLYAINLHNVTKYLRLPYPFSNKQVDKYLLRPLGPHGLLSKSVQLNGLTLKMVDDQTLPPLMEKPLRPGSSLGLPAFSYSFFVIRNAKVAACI
From the text: as §1, §2, §3, §4, §5, §6, §7, §8, §9

[4] = biological target: T4, E. coli β-glucuronidase (EcGusB) (Escherichia coli, UniProt P05804); experiment: Inhibition of EcGusB hydrolysis of 4-methylumbelliferyl glucuronide (MU-GlcUA); type: biochemical; conditions: for Ki: fluorogenic substrate MU-GlcUA, McIllvane buffer pH 5.0, competitive inhibition model
T4 construct: made in house; host or cells: E. coli BL21 Gold (DE3)
From the text: as §10
as §11, with “S6.” for “S5.”, “EcGusB” for “AcGH79”
(§20) (1 picture or pasted object on this page, not shown here)
as §12, §13, §14, §15, §16, §17, §18, §19

[5] = Stability of siastatin B by 1H NMR; type: physicochemical
Description: To determine how siastatin B inhibits β-glucuronidases, we first sought to determine whether inhibition was due to the presence of contaminants from either the commercial material or degradation products resulting from prolonged incubation in an aqueous solution or in the presence of a β-glucuronidase.
Supplemental Figures and Tables
Figure S1. Stability of siastatin B. A) 1H NMR experiment showing siastatin B (2 mg) in D2O phosphate buffer (50 mM, 300 mM NaCl, pH 5.0), taken for two different time points (t=0 min and after 18 h). B) Prolonged incubation of siastatin B with recombinant human heparanase. 1H NMR spectra were taken before and after prolonged incubation with 1.2 µM of recombinant human heparanase. The x-axis of […]
as §20

[6] = fluorogenic substrate MU-GlcUA, McIllvane buffer pH 5.0, competitive inhibition model, read-out: AcGH79 Ki
[7] = 500 µM MU-GlcUA, 0–400 µM siastatin B, pH 5.0

T4 sequence (P05804 whole entry): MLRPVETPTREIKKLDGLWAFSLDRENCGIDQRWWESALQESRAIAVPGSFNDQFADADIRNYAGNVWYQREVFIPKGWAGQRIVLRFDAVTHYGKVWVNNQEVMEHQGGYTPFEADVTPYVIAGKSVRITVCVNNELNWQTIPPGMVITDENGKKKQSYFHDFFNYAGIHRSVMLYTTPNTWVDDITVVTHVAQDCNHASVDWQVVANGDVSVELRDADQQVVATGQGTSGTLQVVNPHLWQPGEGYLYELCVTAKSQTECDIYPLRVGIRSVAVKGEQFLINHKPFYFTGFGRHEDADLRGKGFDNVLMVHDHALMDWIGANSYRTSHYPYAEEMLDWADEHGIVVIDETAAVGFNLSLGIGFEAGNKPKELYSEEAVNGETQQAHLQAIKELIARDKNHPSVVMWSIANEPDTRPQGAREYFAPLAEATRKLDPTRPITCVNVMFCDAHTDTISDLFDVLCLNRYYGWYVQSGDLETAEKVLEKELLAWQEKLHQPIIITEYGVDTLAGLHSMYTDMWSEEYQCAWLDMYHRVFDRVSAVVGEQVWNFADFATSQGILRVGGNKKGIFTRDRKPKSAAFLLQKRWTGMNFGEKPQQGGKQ

Compound: O=C(O)[C@H]1CNCC(O)(O)[C@H]1O [compound 8]
- IC50 [1]: 4 ± 2 µM
- Ki [2, 6]: 5.8 ± 0.5 µM
- IC50 [3]: 27 ± 3 µM
- Ki [4]: 137 ± 3 µM

Compound: O=C(O)[C@H]1CNCC(O)(O)[C@@H]1O [compound 9]
- IC50 [1]: 1.7 ± 0.2 µM
- Ki ([2]; MU-GlcUA substrate, read-out: inhibition constant for AcGH79): 0.52 ± 0.03 µM
- IC50 [3]: 200 ± 80 µM
- Ki [4]: 28 ± 1 µM

Compound: O=C(O)[C@H]1CNC[C@@H](O)[C@H]1O [compound 10, galacturonic acid isofagomine]
- IC50 [1]: 0.7 ± 0.04 µM
- Ki [2, 6]: 1.5 ± 0.4 µM
- IC50 [3]: 8 ± 1 µM
- Ki [4]: 23 ± 3 µM

Compound: O=C(O)[C@H]1CNC[C@@H](O)[C@@H]1O [compound 11, glucuronic acid isofagomine]
- IC50 [1]: 0.6 ± 0.06 µM
- Ki [2, 6]: 0.022 ± 0.003 µM
- IC50 [3]: 80 ± 20 µM
- Ki [4]: 1.5 ± 0.3 µM

Compound: CC(=O)N[C@H]1NC[C@H](C(=O)O)[C@H](O)[C@@H]1O [siastatin B, Siastatin B]
- stability in aqueous buffer (NMR) ([5]; D2O phosphate buffer 50 mM, 300 mM NaCl, pH 5.0, 18 h): no contaminating peaks appeared
- stability on prolonged incubation with recombinant human heparanase (1H NMR) ([5]; heparanase 1.2 μM): very minor additional peaks in the 3.2–3.0 range, with no loss in the starting peaks observed
- inhibition of AcGH79 by HPLC-purified material compared with commercial siastatin B [2, 7]: inhibited less
- inhibition of EcGusB by HPLC-purified material compared with commercial siastatin B [4, 7]: inhibited less
